This is an account of results in patent publication US8999990B2, “Inhibitors of the renal outer medullary potassium channel” (Merck Sharp & Dohme Corp., priority 2011, dated 2015).

The experiment has as its target T1, hROMK1 (Kir1.1) (Homo sapiens, UniProt P48048).
T1 construct: expressed in transfected cells
T1 sequence (P48048 1-391): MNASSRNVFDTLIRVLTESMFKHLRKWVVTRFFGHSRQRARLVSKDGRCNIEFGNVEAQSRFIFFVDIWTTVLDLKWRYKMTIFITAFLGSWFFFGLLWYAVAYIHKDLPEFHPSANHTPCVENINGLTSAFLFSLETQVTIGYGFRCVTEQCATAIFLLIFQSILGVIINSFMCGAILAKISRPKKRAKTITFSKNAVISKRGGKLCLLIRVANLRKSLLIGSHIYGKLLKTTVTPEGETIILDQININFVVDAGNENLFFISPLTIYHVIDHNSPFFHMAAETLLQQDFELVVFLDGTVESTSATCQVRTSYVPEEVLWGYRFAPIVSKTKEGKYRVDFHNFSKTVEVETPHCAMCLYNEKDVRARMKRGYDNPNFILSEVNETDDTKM
The experiment is described as follows: 86Rb+ Efflux Assay. Conditions: CHO-DHFR- cells stably expressing hROMK1; 35 min incubation. The experiment is classed as cell-based. The protocol: Several assays may be used to measure functional inhibition of the ROMK channel by compounds of the instant invention. One assay that was used to test the activity of compounds in the Examples is the functional ^86Rb^+ efflux assay described below, that measures the ability of ROMK to permeate ^86Rb^+, in the absence or presence of test compound. Under control conditions, cells loaded with ^86Rb^+ and incubated in Rb^+-free medium display a time-dependent efflux of the isotope, the rate of which depends on number of functional channels. When cells are incubated in the presence of a channel inhibitor, efflux of ^86Rb^+ is prevented in a concentration-dependent manner, and IC50 values of inhibition by compounds can be accurately determined. This assay has been established with cell lines expressing either human, rat or dog ROMK channels, and can operate in 96- or 384-well format. Importantly, the human, rat, and dog ^86Rb^+ efflux assays can be carried out in the presence of up to 100% serum allowing, therefore, an accurate estimation of the effect of protein binding on the inhibitory activity of compounds of interest. Another ROMK functional assay used to test the activity of compounds in the Examples (described below) makes use of the ability of thallium to permeate through open ROMK channels and increase the fluorescence of a dye previously loaded into the cells. Under control conditions, cells loaded with dye and exposed to thallium-containing medium display a time-dependent increase in fluorescence, the rate of which depends on number of functional channels. When cells are incubated in the presence of a channel inhibitor, the increase in fluorescence is attenuated in a concentration-dependent manner, and IC50 values of inhibition by compounds can be accurately determined. This assay has been established with cell lines expressing either human, or rat ROMK channels, and operates in 384-well format.
CHO-DHFR-cells stably expressing hROMK1 (Kir1.1) are grown at 37° C. in a 10% CO2 humidified incubator in Iscove's Modified Dulbecco's Medium (Gibco 12440) supplemented with HT Supplement, Penicillin/Streptomycin/Glutamine, G418 (500 μg/ml) and 10% FBS. Cells are seeded in Sterile and Tissue Culture Treated Packard CulturPlate White Opaque Microplates at a concentration of 5.0E5-7.0E5 cells/ml-PerkinElmer 6005680 (96-well); Corning 3707 (384 well) in complete media containing 1.5 μCi/ml Rubidium-86. Cells are incubated in 37° C.-10% CO2 incubator overnight. On the day of the experiment, the media is removed and cells are washed with low K assay buffer. ^86Rb^+ efflux is initiated after addition of assay buffer±test compound followed by 35 min incubation at room temperature. ROMK-sensitive component of efflux is defined in the presence of 10 mM BaCl2. Assay buffer is removed and transferred to a plate and cells are solubilized in the presence of SDS. Radioactivity associated with assay and cell plate is determined.
• 1. Remove cell media and wash cells with low K assay buffer (126.9 mM NaCl, 4.6 mM KCl, 2 mM CaCl2, 1 mM MgCl2, 10 mM Hepes/NaOH; pH 7.4) • 200 μl for 96-well plate; 70 μl for 384-well plate • 2. Add assay buffer (121.5 mM NaCl, 10 mM KCl, 2 mM CaCl2, 1 mM MgCl2, 10 mM Hepes/NaOH; pH 7.4)±test compound to cells • 100 μl for 96-well plate; 50 μl for 384-well plate • 3. Incubate at ambient temperature (22-24° C.) for 35 min • 4. Remove assay buffer add it to a 96- or 384-well plate containing Microscint-20 • 96-well Plate: 100 μl buffer, 170 μl MicroScint 20 (for TopCount) • 384-well plate: 20 μl buffer, 50 μl Optiphiase (for MicroLux) • 5. Completely remove remaining assay buffer from cell plate • 6. Solubilize cells with 1% SDS; than add MicroScint or Optiphase • 96-well Plate: 30 μl SDS, 170 μl MicroScint 20 (for TopCount) • 384-well plate: 20 μl SDS, 50 μl Optiphiase (for MicroLux) • 7. Seal both cell and supernatant plates and count Data Calculation— […]
A word on the IC50: it is the concentration at which inhibition is half-maximal. `N#Cc1ccc2c(c1)CCC(N1CCN(C(=O)Cc3ccc(-n4cnnn4)cc3)CC1=O)C2` (racemic) [Example 56, 6-(2-Oxo-4-{[4-(1H-tetrazol-1-yl)phenyl]acetyl}piperazin-1-yl)-5,6,7,8-tetrahydronaphthalene-2-carbonitrile] registered an IC50 of 720 nM. This counts as sub-micromolar.
For `O=C1CN(CCc2ccc([N+](=O)[O-])cc2)CCN1CCc1ccc([N+](=O)[O-])cc1` [Example 1, 1,4-bis[2-(4-nitrophenyl)ethyl]piperazin-2-one] the value was 70 nM; for `O=C1CN(CCc2ccc([N+](=O)[O-])c(C(F)(F)F)c2)CCN1CCc1ccc([N+](=O)[O-])cc1` [Example 3, 1-[2-(4-Nitrophenyl)ethyl]-4-{2-[4-nitro-3-(trifluoromethyl)phenyl]ethyl}piperazin-2-one], 740 nM.
For `O=C1CN(CCc2ccc([N+](=O)[O-])cc2C(F)(F)F)CCN1CCc1ccc([N+](=O)[O-])cc1` [Example 4, 1-[2-(4-Nitrophenyl)ethyl]-4-{2-[4-nitro-2-(trifluoromethyl)phenyl]ethyl}piperazin-2-one] the value was 310 nM; for `N#Cc1ccc(CCN2CCN(CCc3ccc([N+](=O)[O-])cc3)C(=O)C2)cc1` [Example 5, 4-(2-{4-[2-(4-Nitrophenyl)ethyl]-3-oxopiperazin-1-yl}ethyl)benzonitrile], 120 nM; for `COC(=O)c1cc([N+](=O)[O-])ccc1CCN1CCN(CCc2ccc([N+](=O)[O-])cc2)C(=O)C1` [Example 7, Methyl 5-nitro-2-(2-{4-[2-(4-nitrophenyl)ethyl]-3-oxopiperazin-1-yl}ethyl)benzoate], 390 nM.
For `COC(=O)c1cc(CCN2CCN(CCc3ccc([N+](=O)[O-])cc3)C(=O)C2)ccc1[N+](=O)[O-]` [Example 8, Methyl 2-nitro-5-(2-{4-[2-(4-nitrophenyl)ethyl]-3-oxopiperazin-1-yl}ethyl)benzoate] the value was 250 nM; for `COc1cc([N+](=O)[O-])ccc1CCN1CCN(CCc2ccc3nonc3c2)C(=O)C1` [Example 10, 1-[2-(2,1,3-Benzoxadiazol-5-yl)ethyl]-4-[2-(2-methoxy-4-nitrophenyl)ethyl]piperazin-2-one], 370 nM.
With `COc1cc([N+](=O)[O-])ccc1CCN1CCN(CCc2ccc([N+](=O)[O-])cc2)C(=O)C1` [Example 11, 4-[2-(2-Methoxy-4-nitrophenyl)ethyl]-1-[2-(4-nitrophenyl)ethyl]piperazin-2-one], inhibition was half-maximal at 140 nM (IC50).
Next, `O=C1CN(CCc2ccc([N+](=O)[O-])cc2F)CCN1CCc1ccc([N+](=O)[O-])cc1` [Example 12, 4-[2-(2-Fluoro-4-nitrophenyl)ethyl]-1-[2-(4-nitrophenyl)ethyl]piperazin-2-one]: 140 nM; `N#Cc1ccc2c(c1)CCC(N1CCN(C3CCc4cc(C#N)ccc4C3)C(=O)C1)C2` (stereo not shown) [Example 15, 6,6′-(2-Oxopiperazine-1,4-diyl)di(5,6,7,8-tetrahydronaphthalene-2-carbonitrile)]: 51 nM.
For `N#Cc1ccc2c(c1)CCC(N1CCN([C@H]3CCc4cc(C#N)ccc4C3)C(=O)C1)C2` (stereo partly drawn) [Example 16, (6S)-6,6′-(2-oxopiperazine-1,4-diyl)-di-(5,6,7,8-tetrahydronaphthalene-2-carbonitrile)] the value was 100 nM; for `N#Cc1ccc2c(c1)CCC(N1CCN([C@@H]3CCc4cc(C#N)ccc4C3)C(=O)C1)C2` (stereo partly drawn) [Example 17, (6R)-6,6′-(2-oxopiperazine-1,4-diyl)-di-(5,6,7,8-tetrahydronaphthalene-2-carbonitrile)], 70 nM.
Next, `O=C1CN(CCc2ccc([N+](=O)[O-])c(F)c2)CCN1CCc1ccc([N+](=O)[O-])cc1` [Example 18, 4-[2-(3-Fluoro-4-nitrophenyl)ethyl]-1-[2-(4-nitrophenyl)ethyl]piperazin-2-one]: 40 nM; `Cc1cc([N+](=O)[O-])ccc1CCN1CCN(CCc2ccc([N+](=O)[O-])cc2)C(=O)C1` [Example 19, 4-[2-(2-Methyl-4-nitrophenyl)ethyl]-1-[2-(4-nitrophenyl)ethyl]piperazin-2-one]: 50 nM; `O=C1CN(CCc2ccc([N+](=O)[O-])c(F)c2)CCN1CCc1ccc2nonc2c1` [Example 20, 1-[2-(2,1,3-Benzoxadiazol-5-yl)ethyl]-4-[2-(3-fluoro-4-nitrophenyl)ethyl]piperazin-2-one]: 170 nM.
Compound `COc1cc(CCN2CCN(CCc3ccc([N+](=O)[O-])cc3)C(=O)C2)ccc1[N+](=O)[O-]` [Example 22, 4-[2-(3-Methoxy-4-nitrophenyl)ethyl]-1-[2-(4-nitrophenyl)ethyl]piperazin-2-one] yielded an IC50 of 170 nM.
For `O=C1CN(CCc2ccc([N+](=O)[O-])cc2)CCN1CCc1ccc2nonc2c1` [Example 24, 1-[2-(2,1,3-Benzoxadiazol-5-yl)ethyl]-4-[2-(4-nitrophenyl)ethyl]piperazin-2-one] the value was 550 nM; for `O=C1OCc2cc(CCN3CCN(CCc4ccc5nonc5c4)C(=O)C3)ccc21` [Example 27, 1-[2-(2,1,3-Benzoxadiazol-5-yl)ethyl]-4-[2-(1-oxo-1,3-dihydro-2-benzofuran-5-yl)ethyl]piperazin-2-one], 870 nM.
In turn, `O=C1OCc2cc(CCN3CCN(CCc4ccc5c(c4)COC5=O)C(=O)C3)ccc21` [Example 29, 1,4-Bis[2-(1-oxo-1,3-dihydro-2-benzofuran-5-yl)ethyl]piperazin-2-one] came in with an IC50 of 420 nM. This IC50 lies about 2.1-fold lower than the previous one.
Compound `COc1ccc(CCN2CCN(CCc3ccc4c(c3)COC4=O)C(=O)C2)cc1C#N` [Example 32, 2-Methoxy-5-(2-{3-oxo-4-[2-(1-oxo-1,3-dihydro-2-benzofuran-5-yl)ethyl]piperazin-1-yl}ethyl)benzonitrile] had an IC50 of 460 nM.
As to `N#Cc1c(F)ccc2c1CCC2CN1CCN(CCc2ccc3c(c2)COC3=O)CC1=O` (stereo not shown) [Example 34, 5-Fluoro-1-({2-oxo-4-[2-(1-oxo-1,3-dihydro-2-benzofuran-5-yl)ethyl]piperazin-1-yl}methyl)-2,3-dihydro-1H-indene-4-carbonitrile], the IC50 was 360 nM.
For the compound `N#Cc1ccc(CCN2CCN(CCc3ccc4c(c3)COC4=O)CC2=O)cc1Br` [Example 35], the IC50 was 170 nM.
With `N#Cc1ccc(CCN2CCN(CCc3ccc4c(c3)COC4=O)CC2=O)cc1Cl` [Example 36, 2-Chloro-4-(2-{2-oxo-4-[2-(1-oxo-1,3-dihydro-2-benzofuran-5-yl)ethyl]piperazin-1-yl}ethyl)benzonitrile], the IC50 is 110 nM. Compared with the last compound, the IC50 is about 1.5-fold lower.
Next, `N#Cc1ccc2c(c1)CCC(N1CCN(C(=O)C3CCc4cc(-n5cnnn5)ccc43)CC1=O)C2` (stereo not shown) [Example 57, 6-(2-Oxo-4-{[5-(1H-tetrazol-1-yl)-2,3-dihydro-1H-inden-1-yl]carbonyl}piperazin-1-yl)-5,6,7,8-tetrahydronaphthalene-2-carbonitrile]: 800 nM.
